Legend:
[1] = system: chemically regulatable chimeric genes coding for GUS, AHAS or BT; assay: Primer extension assay for mRNA of chemically regulatable chimeric genes; type: in vivo; settings: callus or regenerated plant material from transgenic plants; level proportional to amount of regulator applied
Procedure: 50 g of total RNA is lyophilized in a 500 l Eppendorf tube. The RNA is resuspended in 30 l of radiolabeled probe solution and heated to 70′ C. for 10 minutes. The tube is slowly cooled to 37° C. and allowed to incubate overnight. Without removing the tube from the 37° C. water bath, 2 l of 10×reverse-transcriptase buffer (500 mM Tris-HCl, pH 7.5, 400 mM KCl, 30 mM MgCl2), 1 l 5 mg/ml bovine serum albumin, 5 l 100 mM dithiothreitol, 5 l 10×dNTPs (10 mM of each dNTP in H2O), 3 l H 20, 2 l RNasin (80 units), and 2 l reverse transcriptase (400 units) are added and the reaction is incubated at 37° C. for 30 minutes. To stop the reaction, 5 l of 3 M sodium acetate, pH 5, and 150 l absolute ethanol are added. The tube is left at −20° C. for 30 minutes, the precipitate is collected by centrifugation, washed with 80% ethanol and allowed to air-dry. The precipitate is resuspended in 10-20 l of loading dye (90% formamide, 0.05% bromophenol blue, 0.05% xylene cyanol, 1 mM EDTA) and the extension products are separated on a 6% sequencing gel (Maniatis, T. et al., supra). Extension products are visualized by autoradiography.
Plant materials induced and harvested as in Examples 140 to 142 are assayed for the induction of mRNA species by the isolation of RNA and the primer extension assay as described in Example 6.
The level of mRNA is proportional to the amount of regulator applied.

[2] = system: cucumber chitinase protein; assay: Cucumber chitinase ELISA in transgenic plants carrying cucumber chitinase genomic constructs after leaf treatment; type: in vivo, tobacco; set-up: key: —: Indicates that sample has no detectable level of chitinase protein
Procedure: Once the transgenic plants are transferred to soil, they are grown 4-5 weeks before treatment. The following solutions are applied to the leaves with sterile paintbrushes:
3. Methyl benzo-1,2,3-thiadiazole-7-carboxylate. The solution is made by resuspending a wettable powder containing a formulation of the chemical with 25% active ingredient in sterile water at a concentration of 1 mg/ml.
4. Methyl 2,6-dichloroisonicotinate, prepared as above. Alternatively, 30 ul of 10 mM sodium phosphate buffer, pH 7.0, or 30 ul of the same buffer containing tobacco mosaic virus (50-100 pfu/30 ul) is applied to the leaves which have been sprinkled with carborundum. The buffers are distributed over the whole treated leaf by gentle rubbing.
The plants are allowed to continue to grow for seven days. The treated leaves are then harvested, frozen in liquid nitrogen and stored at −80° C. until they are assayed.
Frozen leaf tissue is ground in a mortar with a pestle in the presence of liquid nitrogen to produce a fine powder. 0.33 g of each tissue sample is added to 1 ml extraction buffer (50 mM Tris-HCl, pH 8.5, 0.2M 2-mercaptoethanol, 2 mM phenyl methyl sulfonyl fluoride, 2 mM benzamidine, 10 mM epsilon-aminocaproic acid, 1 mM leueptine) and the sample homogenized for one minute with an Ultra Turrax Mixer (shaft #S25N-8G, Tekmar Co. Cincinnati, Ohio). The samples are then centrifuged at 48,000×g for fifteen minutes at 4° C. and the supernatant removed from the pelleted material. The extracts are diluted at least 1:50 in ELISA diluent (101 mM sodium phosphate, pH 7.4, 140 mM sodium chloride, 0.05% Tween 20, 0.02% sodium azide, 1% BSA).
A microtiter plate is coated with monoclonal antibody specific to the cucumber chitinase protein at 2 ug/ml in borate-buffered saline (100 mM boric acid, 25mM sodium borate, 75 mM sodium chloride; pH 8.5) using 50 ul per well. The plate is incubated overnight at 4° C. The plate is washed with ELISA wash buffer (10 mM Tris-HCl, pH 8.0, 0.05% Tween 20, 3 mM sodium azide) and BSA blocking solution (10 mM sodium phosphate, pH 7.4, 140 mM sodium chloride, 0.02% sodium azide, 1% BSA) is added to completely cover each well. Incubation is for at least 30 minutes at room temperature.
The microtiter plate is washed with ELISA wash buffer and 50 ul of extract is added to the appropriate well. 50 ul of each of 10 chitinase protein standards (ranging from 0 ng/ml to 31.64 ng/ml) was also added to the appropriate well and the plate is incubated for two hours at 4° C. The plate is washed with ELISA wash buffer and 50 ul of rabbit polyclonal antibody to the cucumber chitainase protein (diluted 1:15,000 in ELISA diluent) is added to the well and incubated for one hour at 37° C. After washing with ELISA wash buffer, 50 ul of goat anti-rabbit conjugated to alkaline phosphatase (1:500 in ELISA diluent) is added to each well and incubated at 37° C. for one hour. The plate is then washed and 50 ul alkaline phosphatase substrate solution (0.6 mg/ml p-nitrophenyl phosphate in 0.5 mM magnesium chloride and 10% diethanolamine) is added to each well. After a 30 minute incubation at room temperature, 50 ul of 3N sodium hydroxide is added to each well to stop the reaction.
The plate is read at 405 nm and 492 nm on an HP Genenchem ELISA plate reader. The output values are expressed as A(405 nm)-A(492 nm)−0.092 to allow for correction of p-nitrophenyl phosphate as substrate. The chitinase standards for each plate are graphed logarithmically. The amount of chitinase protein in each sample is determined from the standard curve. If the amount of chitinase in any sample is close to the upper limit of the curve, the sample is assayed again at a greater dilution. Final results are expressed in the table below in ug chitinase per gram tissue.

`O=C(O)c1ccccc1O` [Salicylic acid, salicylic acid] was tested, and the “level of mRNA of the chimeric gene (GUS, AHAS or BT primer), primer extension assay” value [1] was “elevated levels of mRNA”, the “ELISA ASSAY RESULTS (ug chitinase/g tissue)” value (shortened to “ELISA ASSAY RESULTS”) ([2]; line Bam-1 (2001/BamChit), leaves harvested after seven days, water 0.066, buffer —) was “—” and the “ELISA ASSAY RESULTS” value ([2]; line Bam-3 (2001/BamChit), seven days, water —, buffer —) was “—”. The “ELISA ASSAY RESULTS” value ([2]; line Bam-4 (2001/BamChit), seven days, water —, buffer —) was “—”, the “ELISA ASSAY RESULTS” value ([2]; line Bam-8 (2001/BamChit), seven days, water —, buffer —) was “—” and the “ELISA ASSAY RESULTS” value ([2]; line Bam-9 (2001/BamChit), seven days, water —, buffer —) was 0.522 ug chitinase/g tissue. The “ELISA ASSAY RESULTS” value ([2]; line Bam-10 (2001/BamChit), seven days, water 0.059, buffer 0.084) was 0.093 ug chitinase/g tissue, the “ELISA ASSAY RESULTS” value ([2]; line Bam-12 (2001/BamChit), seven days, water —, buffer —) was “—” and the “ELISA ASSAY RESULTS” value ([2]; line Bam-14 (2001/BamChit), seven days, water —, buffer —) was “—”. The “ELISA ASSAY RESULTS” value ([2]; line Bam-15 (2001/BamChit), seven days, water —, buffer —) was “—”, the “ELISA ASSAY RESULTS” value ([2]; line Bam-16 (2001/BamChit), seven days, water —, buffer —) was 0.690 ug chitinase/g tissue and the “ELISA ASSAY RESULTS” value ([2]; line Bam-17 (2001/BamChit), seven days, water —, buffer —) was “—”. The “ELISA ASSAY RESULTS” value ([2]; line Bam-19 (2001/BamChit), seven days, water —, buffer —) was 0.760 ug chitinase/g tissue, the “ELISA ASSAY RESULTS” value ([2]; line Bam-21 (2001/BamChit), seven days, water —, buffer —) was “—” and the “ELISA ASSAY RESULTS” value ([2]; line Bam-23 (2001/BamChit), seven days, water —, buffer —) was “—”. The “ELISA ASSAY RESULTS” value ([2]; line Bam-24 (2001/BamChit), seven days, water —, buffer —) was “—”, the “ELISA ASSAY RESULTS” value ([2]; line Bam-25 (2001/BamChit), seven days, water —, buffer —) was 0.522 ug chitinase/g tissue and the “ELISA ASSAY RESULTS” value ([2]; line Bam-26 (2001/BamChit), seven days, water —, buffer —) was “—”. The “ELISA ASSAY RESULTS” value ([2]; line Nco-2 (2001/NcoChit), seven days, water —, buffer —) was “—”, the “ELISA ASSAY RESULTS” value ([2]; line Nco-3 (2001/NcoChit), seven days, water —, buffer —) was “—” and the “ELISA ASSAY RESULTS” value ([2]; line Nco-5 (2001/NcoChit), seven days, water —, buffer —) was “—”. For the same compound, the “ELISA ASSAY RESULTS” value ([2]; line Nco-8 (2001/NcoChit), seven days, water —, buffer —) was “—”, the “ELISA ASSAY RESULTS” value ([2]; line Nco-9 (2001/NcoChit), seven days, water —, buffer —) was “—” and the “ELISA ASSAY RESULTS” value ([2]; line Nco-10 (2001/NcoChit), seven days, water —, buffer —) was “—”. The “ELISA ASSAY RESULTS” value ([2]; line Nco-11 (2001/NcoChit), seven days, water —, buffer —) was “—”, the “ELISA ASSAY RESULTS” value ([2]; line Nco-15 (2001/NcoChit), seven days, water —, buffer —) was “—” and the “ELISA ASSAY RESULTS” value ([2]; line Nco-16 (2001/NcoChit), seven days, water 0.555, buffer 0.566) was 0.555 ug chitinase/g tissue. The “ELISA ASSAY RESULTS” value ([2]; line Nco-17 (2001/NcoChit), seven days, water —, buffer —) was “—”, the “ELISA ASSAY RESULTS” value ([2]; line Sal-2 (2001/SalChit), seven days, water —, buffer —) was “—” and the “ELISA ASSAY RESULTS” value ([2]; line Sal-3 (2001/SalChit), seven days, water —, buffer —) was “—”. The “ELISA ASSAY RESULTS” value ([2]; line Sal-4 (2001/SalChit), seven days, water —, buffer —) was 0.047 ug chitinase/g tissue, the “ELISA ASSAY RESULTS” value ([2]; line Sal-5 (2001/SalChit), seven days, water —, buffer —) was “—” and the “ELISA ASSAY RESULTS” value ([2]; line Sal-7 (2001/SalChit), seven days, water —, buffer —) was “—”. For the same compound, the “ELISA ASSAY RESULTS” value ([2]; line Sal-8 (2001/SalChit), seven days, water —, buffer —) was “—”, the “ELISA ASSAY RESULTS” value ([2]; line Sal-9 (2001/SalChit), seven days, water —, buffer —) was 1.052 ug chitinase/g tissue and the “ELISA ASSAY RESULTS” value ([2]; line Sal-11 (2001/SalChit), seven days, water —, buffer —) was “—”. The “ELISA ASSAY RESULTS” value ([2]; line Sal-12 (2001/SalChit), seven days, water —, buffer —) was “—”, the “ELISA ASSAY RESULTS” value ([2]; line Sal-13 (2001/SalChit), seven days, water —, buffer —) was “—” and the “ELISA ASSAY RESULTS” value ([2]; line Sal-14 (2001/SalChit), seven days, water —, buffer —) was “—”. For the same compound, the “ELISA ASSAY RESULTS” value ([2]; line Sal-15 (2001/SalChit), seven days, water —, buffer —) was “—”.
